Like-named read-outs stand apart in the source and are kept apart here.
What was measured:
[1] = system: L1210 murine leukemia cells; assay: in vivo antitumor model, L1210 cells implanted ip into mice
[2] = system: L1210 murine leukemia cells; details: previously established; cited from earlier work
[3] = system: L1210 murine leukemia cell line; assay: cell growth inhibition in a cytotoxic assay with L1210; type: cell-based
[4] = chemical reactivity/stability under acidic, basic and nucleophilic conditions; type: physicochemical
[5] = human plasma
DNA = DNA alkylation in cell-free systems; type: biochemical
[6] = system: L1210 murine leukemia cell line; details: natural enantiomer; cited from earlier work

For O=C(Nc1ccc2[nH]c(C(=O)N3C[C@H](CCl)c4c3cc(O)c3ccccc43)cc2c1)c1cc2ccccc2[nH]1 [Compound 4, seco-CBI-indole2], the “T/C (percent survival)” value ([1]; 60 μg/kg ip on days 1, 5, 9) was 197, the “long term (250 days) survivors” value ([1]; 60 μg/kg ip on days 1, 5, 9) was 1/10 and the “toxicity (premature death of the animals)” value ([1]; doses of 100–500 μg/kg ip on days 1, 5, 9) was “toxic”. The optimal dose range [2] was 0.06 to 0.1 mg/kg and the IC50 ([3]; Mus musculus, L1210, L1210 cell line) was 0.03 nM.
In the case of Nc1cccc2c1C(=O)C=C1N(C(=O)c3cc4cc(NC(=O)c5cc6ccccc6[nH]5)ccc4[nH]3)CC3CC123 (racemic) [(±)-20, N-(2-(5-Amino-4-oxo-1,2,9,9a-tetrahydrocyclopropa[c]benzo[e]indole-2-carbonyl)-1H-indol-5-yl)-1H-indole-2-carboxamide], the “fold less active than 4 (active enantiomer of 20)” value ([3]; L1210, inferred for the active enantiomer from the racemate) is reported as 3–4 fold.
With CC(C)(C)OC(=O)N1C[C@@H](CCl)c2c1cc1c3c(cccc23)NC(=O)O1 [Compound 16, tert-Butyl 10-(Chloromethyl)-5-oxo-9,10-dihydro-4H-pyrrolo[3',2':5,6]naphtho[1,8-de][1,3]oxazine-8(5H)-carboxylate] the “stability of cyclic carbamate to hydrolysis under acidic conditions” value ([4]; 1:1 TFA:CH2Cl2, 4 N HCl in EtOAc, 48 h at 23 °C) was “stable”, the “stability to nucleophiles BnSH and BnOH” value ([4]; 100 equiv in MeOH and THF at 23 °C for 48 h) was “completely stable” and the “stability to BnNH2 in MeOH” value ([4]; BnNH2 (100 equiv) in MeOH, 24 h) was “rapidly cleaved”. The “stability to BnNH2 in THF” value ([4]; BnNH2 in THF) was “stable”, the “hydrolysis of cyclic carbamate with NaHCO3” value ([4]; NaHCO3 in protic solvents) was “slowly hydrolyzed” and the “stability to organic bases” value ([4]; organic bases in aprotic solvents) was “stable”. For the same molecule, the “fold less active than N-Boc-CBI” value ([3]; L1210, relative to N-Boc-CBI) was 50–100 fold.
With O=C1Nc2cccc3c4c(cc(c23)O1)N(C(=O)c1cc2cc(NC(=O)c3cc5ccccc5[nH]3)ccc2[nH]1)CC4CCl (centres unmarked) [Compound 6, N-(2-(10-(Chloromethyl)-5-oxo-5,8,9,10-tetrahydro-4H-pyrrolo[3',2':5,6]naphtho[1,8-de][1,3]oxazine-8-carbonyl)-1H-indol-5-yl)-1H-indole-2-carboxamide] the free drug release [5] was 5%, the DNA alkylation (DNA) was “incapable of alkylating DNA” and the “stability under acidic conditions” value ([4]; 1:1 TFA:CH2Cl2, 4 N HCl in EtOAc, up to 72 h at 23 °C) was “stable”. The “times more potent than its N-Boc precursor 16” value ([3]; L1210, relative to 16) was 100 to 1000 times.
In the case of CC(C)(C)OC(=O)N1C[C@H]2C[C@@]23C1=CC(=O)c1ccccc13 [N-Boc-CBI], the IC50 [6] is listed as 80 nM.
In the case of O=C1Nc2cccc3c4c(cc(c23)O1)N(C(=O)c1cc2cc(NC(=O)c3cc5ccccc5[nH]3)ccc2[nH]1)CC4CCl (single isomer, unassigned; (+)) [(+)-6, N-(2-(10-(Chloromethyl)-5-oxo-5,8,9,10-tetrahydro-4H-pyrrolo[3',2':5,6]naphtho[1,8-de][1,3]oxazine-8-carbonyl)-1H-indol-5-yl)-1H-indole-2-carboxamide], the “long term cures (>250 days)” value ([1]; 9000 μg/kg ip on days 1, 5, 9) is reported as 5/10 and the “antitumor activity over dose range” value ([1]; 300 to 9000 μg/kg ip on days 1, 5, 9 (30-fold range)) is reported as “productive antitumor activity over the entire and much larger dose range examined”.
